pIC50: −log10 of the molar value. Bounds are passed on as bounds.

For series [1], the system named is MCF-7 (human breast adenocarcinoma). The series can be described thus: Cytotoxicity assay (methylene blue); nitroxides alone or doxorubicin plus tempamine. Type of series: cell-based. As to the method: As described in Example 1, the cytotoxicity of tempamine was determined on three cell lines, MCF-7 (human breast adenocarcinoma), M-109S (doxorubicin-sensitive human breast carcinoma), and M-109R (doxorubicin-resistant human breast carcinoma). The effect of free tempamine on cell proliferation was determined by a methylene blue assay as described in Example 1B.
FIG. 4 is a plot comparing the percent survival of MCF-7 human breast carcinoma cells at various doses of tempamine (closed circles) and tempol (open circles) in vitro. The cells were analyzed after 72 hours of exposure to the nitroxides. Tempamine and tempol cell growth inhibitory activities were of similar magnitude.
In yet another aspect, the invention contemplates administration of tempamine in combination with chemotherapeutic agent. […] Doxorubicin was chosen as a model chemotherpeutic agent. The enhancement of doxorubicin cytotoxicity by tempamine was tested on three cell lines, as described in Example 1A. A cytotoxicity assay as described in Example 1B was used. Two of the cell lines, MCF-7 and M-109S, were doxorubicin-sensitive lines and one cell line, M-109R, was doxorubicin resistant. MCF-7 cells are more sensitive to tempamine (100 μM caused 75% growth inhibition), but are less sensitive to doxorubicin, than are M-109S cells.
MCF-7 (human breast adenocarcinoma), M-109S (doxorubicin-sensitive human breast carcinoma), and M-109R (doxorubicin-resistant human breast carcinoma) were maintained in RPMI medium (Biological Industries, Beit HaEmek, Israel) supplemented with 10% fetal calf serum (FCS). The cell lines were maintained under standard culture conditions at 37° C. in a humidified 5% CO2 atmosphere.
The effect of tempamine on cell proliferation was determined by the methylene blue assay (Horowitz, A. T., et al., Biochim BiophysActa. 1109:203, (1992)). Briefly, cells were seeded onto 96-well plates (MCF cells at a density of 6×10^3 cells per well, and M-109S and M-109R at a density of 1.5×10^3 cells per well) and allowed to grow for 24 hours prior to treatment with different concentrations of tempamine. After the addition of tempamine (5×10^−5 to 4×10^−4), the cells were incubated in RPMI +10% FCS for four days without change of medium. Then the cells were fixed with 2.5% glutaraldehyde, stained with methylene blue and assayed spectrophotometrically.

Series [2] is described as follows: Lipid bilayer/aqueous phase distribution (dialysis membrane). Type of series: physicochemical. Conditions: no ammonium sulfate gradient. On the procedure: In another study, the partition of tempamine between the lipid bilayer and the aqueous phase was determined. The lipid bilayer/aqueous phase distribution was performed using a dialysis membrane separating the phases in 0.15 M NaCl (Samuni, A., et al., Free Radic Biol Med., 22:1165 (1997)). There was no predisposition of tempamine for the lipid bilayer over the 0.15 M NaCl aqueous phase and the distribution of tempamine was equal between the liposome preparation (10% egg phosphatidylcholine (EPC) (w/v)) and 0.15 M NaCl (data not shown).

The format of series [3] is in vivo. Conditions: free tempamine 1.8 mg/kg, four hours after injection, healthy and arthritic rats. On the procedure:
Studies using the AA model are described in Example 6. In this study, AA was induced in male rats by injection of microbacteria in Freund's ajuvavnt. Liposomes containing tempanine were prepared as described in Example 5A by remote loading tempamine against an ammonium sulfate gradient. The liposomes were administered by injection to healthy and arthritic rats 22 days after inducement of AA. At regular time intervals after administration of the liposomes, plasma and tissue samples were taken to determine the biodistribution and pharmacokinetics.
Adjuvent arthritis (AA) was induced by a single intradermal injection of mycobacteria in mineral oil (Freund's adjuvant). In strains of rats susceptible to adjuvant arthritis, the non-specific primary inflamnmation at the injection site was followed on about the 10th post-injection day by a disseminated polyarthritis or secondary specific inflammation. Lewis strain rats, which are highly susceptible to AA, were injected with 1 mg of Mycobacterium tuberculosis H37Ra (Difco, Detroit, Mich., USA) in Freund's complete adjuvant (FCA) (Difco), subcutaneously at the base of the tail. Maximum swelling of the paw occurred between 20 and 27 days
Adjuvent (maximum swelling). Tempamine was administered at a dose of 1.8 mg tempamine/kg (10.5 μmol/kg). The phospholipid concentration of the injected liposomes was 42 mg/kg (56 μmol/kg). […]

The nature of series [4]: n-octanol/water partition coefficient (Kp). The format is physicochemical. Conditions: ammonium sulfate 0 mM; TMN 20 μmole.

Regarding `CC1(C)CC(N)CC(C)(C)N1[O]` [tempamine, 2,2,6,6-tetramethylpiperidine-4-amino-1-oxyl], in series [1] (Homo sapiens, MCF7, 72 h, read-out: IC50 (cell growth inhibition)), the negative-log IC50 (pIC50) was 3.68. Also, the growth inhibition in series [1] (MCF-7, 100 μM tempamine) was 75%. Further, the “distribution between liposome preparation (10% EPC w/v) and 0.15 M NaCl” value in series [2] was “equal”. Further, the “amount of tempamine in plasma and in the tested tissues (detection limit)” value in series [3] was less than 0.5 µM. Further, in series [4], the “n-octanol/aqueous phase (Kp), pH 4” value was found to be 0.111 and the “n-octanol/aqueous phase (Kp), pH 10.6” value turned out to be 2.331.

The values are drawn from patent US20040219201A1, “Tempamine compositions and methods of use” (priority 2001, published 2004).
